{"source": "patent EP4772502A1", "about": "“ARYL OR HETEROARYL SUBSTITUTED CARBAMATE COMPOUND AND DERIVATIVE AND USE THEREOF” (Shenzhen Zhongge Biological Technology Co., Ltd., priority 2023, dated 2025)", "key": {"AMPKα1β1γ1": {"biological_target": "T1, AMPKα1β1γ1 (Homo sapiens, UniProt Q13131+Q9Y478)", "T1 construct": "purchased CARNA 02-113", "T1 sequence (Q13131 whole entry)": "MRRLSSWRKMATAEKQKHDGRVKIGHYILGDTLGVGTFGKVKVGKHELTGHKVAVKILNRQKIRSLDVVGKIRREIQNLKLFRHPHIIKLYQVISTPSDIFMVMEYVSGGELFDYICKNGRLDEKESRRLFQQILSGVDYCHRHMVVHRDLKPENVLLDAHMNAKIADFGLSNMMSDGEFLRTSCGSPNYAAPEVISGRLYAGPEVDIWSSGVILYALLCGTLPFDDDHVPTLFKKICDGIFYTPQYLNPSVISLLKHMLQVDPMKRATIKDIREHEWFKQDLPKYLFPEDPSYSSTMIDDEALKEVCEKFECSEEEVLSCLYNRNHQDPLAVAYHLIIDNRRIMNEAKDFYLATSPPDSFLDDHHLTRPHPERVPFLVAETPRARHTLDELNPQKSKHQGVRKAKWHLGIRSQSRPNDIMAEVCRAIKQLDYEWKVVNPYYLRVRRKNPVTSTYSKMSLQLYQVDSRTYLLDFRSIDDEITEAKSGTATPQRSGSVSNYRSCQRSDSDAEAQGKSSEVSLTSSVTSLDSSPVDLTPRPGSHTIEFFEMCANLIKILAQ", "T1 sequence (Q9Y478 whole entry)": "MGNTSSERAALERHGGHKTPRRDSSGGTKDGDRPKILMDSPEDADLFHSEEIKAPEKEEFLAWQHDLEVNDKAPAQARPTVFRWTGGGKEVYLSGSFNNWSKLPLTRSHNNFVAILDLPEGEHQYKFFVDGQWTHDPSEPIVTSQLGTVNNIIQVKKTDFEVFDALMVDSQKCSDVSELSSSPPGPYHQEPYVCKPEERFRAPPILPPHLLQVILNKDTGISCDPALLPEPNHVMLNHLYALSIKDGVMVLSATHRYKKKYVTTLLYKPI", "T1 sequence (P54619 whole entry partner)": "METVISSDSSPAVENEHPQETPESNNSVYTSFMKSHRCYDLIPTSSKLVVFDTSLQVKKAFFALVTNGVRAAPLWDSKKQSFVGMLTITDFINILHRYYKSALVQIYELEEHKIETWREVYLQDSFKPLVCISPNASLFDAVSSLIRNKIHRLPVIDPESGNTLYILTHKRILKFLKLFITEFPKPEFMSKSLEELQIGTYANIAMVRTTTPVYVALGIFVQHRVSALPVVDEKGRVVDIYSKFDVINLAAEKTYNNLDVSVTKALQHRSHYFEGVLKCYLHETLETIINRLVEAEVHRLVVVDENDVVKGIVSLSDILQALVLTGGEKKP", "test": "In vitro assay for AMPK (α1β1γ1) enzyme agonist activity (TR-FRET)", "format": "biochemical", "settings": "1 h; activity of 1 µM A769662 set as 100%; read-out: Top value (%)", "experimental": "Test example 1: In vitro assay for AMPK (α1β1γ1) enzyme agonist activity\nTest compounds were dissolved in DMSO to prepare 10 mM stock solution, which was then diluted to the predetermined test concentrations using kinase buffer (50 mM HEPES, 1 mM EDTA, 10 mM MgCl2, 0.01% Brij-35, pH = 7.5). Into a 384-well plate were added 5 µL of AMPKα1β1γ1 (CARNA, 02-113), 2.5 µL of the diluted test compound solution, and 2.5 µL of a mixture of […] and ATP, resulting in the following final concentrations: AMPKα1β1γ1 at 1.6 mg/L, […] at 5 nM, and ATP at 0.1 mM. The components were mixed evenly, and reacted at room temperature for 1 h. Subsequently, 5 µL of LANCE Detection Buffer (CR97-100, PerkinElmer) containing 40 mM EDTA was added. After standing for 5 min, 5 µL of 4× Eu-anti-phospho-CREB Antibody (TRF0200-M, PerkinElmer) was added, and the mixture was allowed to stand at room temperature for 1 h. The values of samples in each well were read using a microplate reader in TR-FRET mode (excitation wavelength: 320 nm; emission wavelengths: 665 nm and 615 nm). By comparing the values with those of the blank control group (1% DMSO) and the positive control group (1 µM A769662), the relative activity of AMPKα1β1γ1 at each test compound concentration (4.57 nM, 13.72 nM, 41.15 nM, 123.46 nM, 370.37 nM, 1111.11 nM, 3333.33 nM, and 10000 nM) was calculated, with the activity of 1 µM A769662 set as 100%. The data were analysed in GraphPad Prism 9 using a Dose-response-Stimulation four-parameter regression model to obtain the Top and EC50 values for the test compounds."}, "AMPK": {"tested_on": "AMPK", "settings": "Tamura et al., Bioorganic & Medicinal Chemistry Letters, Vol. 68, 2022, 128769; cited from earlier work"}}}
{"smiles": "O=C(Nc1cc(Cl)c(C#CC2(O)CCC2)s1)O[C@@H]1CO[C@H]2[C@@H]1OC[C@H]2O", "note": "[Compound 28]", "values": [{"measurement": "Emax", "setting": "AMPKα1β1γ1", "result": "70 to 100", "unit": "%"}]}
{"smiles": "NCCCOc1ccc(-c2sc(NC(=O)O[C@@H]3CO[C@H]4[C@@H]3OC[C@H]4O)cc2Cl)cc1", "note": "[Compound 31]", "values": [{"measurement": "Emax", "setting": "AMPKα1β1γ1", "result": "150 to 200", "unit": "%"}]}
{"smiles": "NCCCc1ccc(-c2sc(NC(=O)O[C@@H]3CO[C@H]4[C@@H]3OC[C@H]4O)cc2Cl)cc1", "note": "[Compound 32]", "values": [{"measurement": "Emax", "setting": "AMPKα1β1γ1", "result": "100 to 150", "unit": "%"}]}
{"smiles": "CCOC(=O)[C@H]1CC[C@H](OC(=O)Nc2cc(Cl)c(-c3ccc(C4(CO)CC4)cc3)s2)CC1", "note": "[Compound 37]", "values": [{"measurement": "Emax", "setting": "AMPKα1β1γ1", "result": "70 to 100", "unit": "%"}]}
{"smiles": "O=C(Nc1cc(Cl)c(-c2ccc(C3(CO)CC3)cc2)s1)O[C@H]1CC[C@H](C(=O)O)CC1", "note": "[Compound 38]", "values": [{"measurement": "Emax", "setting": "AMPKα1β1γ1", "result": "150 to 200", "unit": "%"}]}
{"smiles": "O=C(Nc1cc(Cl)c(-c2ccc(C3(CO)CC3)cc2)s1)O[C@H]1CC[C@H](CO)CC1", "note": "[Compound 39]", "values": [{"measurement": "Emax", "setting": "AMPKα1β1γ1", "result": "100 to 150", "unit": "%"}]}
{"smiles": "CCc1cc(NC(=O)O[C@@H]2CO[C@H]3[C@@H]2OC[C@H]3O)sc1-c1ccc(C2(CO)CC2)cc1", "note": "[Compound 40]", "values": [{"measurement": "Emax", "setting": "AMPKα1β1γ1", "result": "100 to 150", "unit": "%"}]}
{"smiles": "O=C(Nc1cc(Cl)c(-c2ccc(-c3ccccc3O)cc2)s1)OCCCO", "note": "[Compound 42]", "values": [{"measurement": "Emax", "setting": "AMPKα1β1γ1", "result": "150 to 200", "unit": "%"}]}
{"smiles": "O=C(Nc1cc(-c2ccc(C3(CO)CC3)cc2)c(Cl)s1)O[C@@H]1CO[C@H]2[C@@H]1OC[C@H]2O", "note": "[compound 1]", "values": [{"measurement": "Emax", "setting": "AMPKα1β1γ1", "result": "200 to 300", "unit": "%"}]}
{"smiles": "O=C(Nc1cc(-c2ccc(C3(CO)CC3)cc2)cs1)O[C@@H]1CO[C@H]2[C@@H]1OC[C@H]2O", "note": "[compound 2]", "values": [{"measurement": "Emax", "setting": "AMPKα1β1γ1", "result": "150 to 200", "unit": "%"}]}
{"smiles": "O=C(Nc1cc(Cl)c(-c2ccc(C3(CO)CC3)cc2)s1)O[C@@H]1CO[C@H]2[C@@H]1OC[C@H]2O", "note": "[compound 3]", "values": [{"measurement": "Emax", "setting": "AMPKα1β1γ1", "result": "200 to 300", "unit": "%"}]}
{"smiles": "O=C(Nc1cc(Cl)c(-c2ccc(-c3ccccc3)cc2)s1)O[C@@H]1CO[C@H]2[C@@H]1OC[C@H]2O", "note": "[compound 4]", "values": [{"measurement": "Emax", "setting": "AMPKα1β1γ1", "result": "150 to 200", "unit": "%"}]}
{"smiles": "Cn1ccc2cc(-c3sc(NC(=O)O[C@@H]4CO[C@H]5[C@@H]4OC[C@H]5O)cc3Cl)ccc21", "note": "[compound 5]", "values": [{"measurement": "Emax", "setting": "AMPKα1β1γ1", "result": "150 to 200", "unit": "%"}]}
{"smiles": "O=C(Nc1cc(Cl)c(-c2ccc(-c3ccccc3O)cc2)s1)O[C@@H]1CO[C@H]2[C@@H]1OC[C@H]2O", "note": "[compound 6]", "values": [{"measurement": "Emax", "setting": "AMPKα1β1γ1", "result": "200 to 300", "unit": "%"}]}
{"smiles": "O=C(Nc1cc(Cl)c(-c2ccc(C3(O)CCC3)cc2)s1)O[C@@H]1CO[C@H]2[C@@H]1OC[C@H]2O", "note": "[compound 7]", "values": [{"measurement": "Emax", "setting": "AMPKα1β1γ1", "result": "200 to 300", "unit": "%"}]}
{"smiles": "Cc1cc(NC(=O)O[C@@H]2CO[C@H]3[C@@H]2OC[C@H]3O)sc1-c1ccc(C2(CO)CC2)cc1", "note": "[compound 8]", "values": [{"measurement": "Emax", "setting": "AMPKα1β1γ1", "result": "200 to 300", "unit": "%"}]}
{"smiles": "O=C(Nc1cc(Cl)c(-c2ccc(N3CCOCC3)cc2)s1)O[C@@H]1CO[C@H]2[C@@H]1OC[C@H]2O", "note": "[compound 9]", "values": [{"measurement": "Emax", "setting": "AMPKα1β1γ1", "result": "150 to 200", "unit": "%"}]}
{"smiles": "COc1ccc(-c2sc(NC(=O)O[C@@H]3CO[C@H]4[C@@H]3OC[C@H]4O)cc2Cl)cc1", "note": "[compound 10]", "values": [{"measurement": "Emax", "setting": "AMPKα1β1γ1", "result": "200 to 300", "unit": "%"}]}
{"smiles": "O=C(Nc1ncc(-c2ccc(-c3ccccc3)cc2)s1)O[C@@H]1CO[C@H]2[C@@H]1OC[C@H]2O", "note": "[compound 11]", "values": [{"measurement": "AMPK agonist activity", "setting": "AMPK", "result": "no AMPK agonist activity"}]}
{"smiles": "O=C(Nc1csc(-c2ccc(C3(CO)CC3)cc2)c1)O[C@@H]1CO[C@H]2[C@@H]1OC[C@H]2O", "note": "[compound 13]", "values": [{"measurement": "Emax", "setting": "AMPKα1β1γ1", "result": "200 to 300", "unit": "%"}]}
{"smiles": "O=C(Nc1cc(Cl)c(-c2ccc(N3CCCC3)cc2)s1)O[C@@H]1CO[C@H]2[C@@H]1OC[C@H]2O", "note": "[compound 14]", "values": [{"measurement": "Emax", "setting": "AMPKα1β1γ1", "result": "70 to 100", "unit": "%"}]}
{"smiles": "Cn1ccc2cc(-c3sc(NC(=O)OCCCO)cc3Cl)ccc21", "note": "[compound 15]", "values": [{"measurement": "Emax", "setting": "AMPKα1β1γ1", "result": "70 to 100", "unit": "%"}]}
{"smiles": "O=C(Nc1cc(Cl)c(C#Cc2ccccc2)s1)O[C@@H]1CO[C@H]2[C@@H]1OC[C@H]2O", "note": "[compound 17]", "values": [{"measurement": "Emax", "setting": "AMPKα1β1γ1", "result": "200 to 300", "unit": "%"}]}
{"smiles": "O=C(Nc1cc(Cl)c(-c2ccc3c(ccn3C3CC3)c2)s1)O[C@@H]1CO[C@H]2[C@@H]1OC[C@H]2O", "note": "[compound 18]", "values": [{"measurement": "Emax", "setting": "AMPKα1β1γ1", "result": "150 to 200", "unit": "%"}]}
{"smiles": "CS(=O)(=O)c1ccc(-c2ccc(-c3sc(NC(=O)O[C@@H]4CO[C@H]5[C@@H]4OC[C@H]5O)cc3Cl)cc2)cc1", "note": "[compound 19]", "values": [{"measurement": "Emax", "setting": "AMPKα1β1γ1", "result": "150 to 200", "unit": "%"}]}
{"smiles": "O=C(Nc1cc(Cl)c(C#Cc2ccccc2O)s1)O[C@@H]1CO[C@H]2[C@@H]1OC[C@H]2O", "note": "[compound 20]", "values": [{"measurement": "Emax", "setting": "AMPKα1β1γ1", "result": "≥ 300", "unit": "%"}]}
{"smiles": "O=C(Nc1cc(C2CC2)c(-c2ccc(C3(CO)CC3)cc2)s1)O[C@@H]1CO[C@H]2[C@@H]1OC[C@H]2O", "note": "[compound 22]", "values": [{"measurement": "Emax", "setting": "AMPKα1β1γ1", "result": "150 to 200", "unit": "%"}]}
{"smiles": "O=C(Nc1cc(Cl)c(-c2ccc(OCCCN3CCOCC3)cc2)s1)O[C@@H]1CO[C@H]2[C@@H]1OC[C@H]2O", "note": "[compound 23]", "values": [{"measurement": "Emax", "setting": "AMPKα1β1γ1", "result": "≥ 300", "unit": "%"}]}
{"smiles": "CN1CCC(c2ccc(-c3sc(NC(=O)O[C@@H]4CO[C@H]5[C@@H]4OC[C@H]5O)cc3Cl)cc2)CC1", "note": "[compound 24]", "values": [{"measurement": "Emax", "setting": "AMPKα1β1γ1", "result": "150 to 200", "unit": "%"}]}
